In ChEMBL document CHEMBL1126495, “A new series of potent LTD4 antagonists in the styrylquinoline class” (Bioorg Med Chem Lett, 1993) one finds IC50 data, which are given here for 13 compounds.

The experiment concerns the target T1, Cysteinyl leukotriene receptor 1 (Cavia porcellus, UniProt Q2NNR5).
T1 sequence (Q2NNR5 whole entry): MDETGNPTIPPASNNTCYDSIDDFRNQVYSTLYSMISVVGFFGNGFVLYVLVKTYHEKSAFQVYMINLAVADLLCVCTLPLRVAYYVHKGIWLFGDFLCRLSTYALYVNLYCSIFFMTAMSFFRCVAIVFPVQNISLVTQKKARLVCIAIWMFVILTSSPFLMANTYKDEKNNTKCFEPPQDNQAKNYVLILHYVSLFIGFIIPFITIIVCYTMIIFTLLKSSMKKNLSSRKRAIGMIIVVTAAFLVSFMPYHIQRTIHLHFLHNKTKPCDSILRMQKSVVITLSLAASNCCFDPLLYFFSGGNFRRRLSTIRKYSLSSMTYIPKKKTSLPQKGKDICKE
Kind of experiment: Inhibition of [3H]LTD4 binding to guinea-pig lung membrane. In kind it is tissue-based.

The IC50 is the concentration that inhibits the measured activity by half. `CC(C)(O)CCCSC(CCC(C)(C)CC(=O)O)c1cccc(/C=C/c2ccc3ccc(Cl)cc3n2)c1` (stereo not drawn) showed an IC50 of 1.3 nM. This counts as single-digit nanomolar.
Compound `CC(CC[C@H](SCCCC(C)(C)O)c1cccc(/C=C/c2ccc3ccc(Cl)cc3n2)c1)CC(=O)O` (stereo partly drawn) registered an IC50 of 0.5 nM. Compared with the last compound, the IC50 is about 2.6-fold lower.
The value for `CC(C)(O)c1ccccc1CS[C@@H](CCC1(CC(=O)O)CC1)c1cccc(CCc2ccc3ccc(Cl)cc3n2)c1` was 1.4 nM.
The value for `CC(C)(CC[C@@H](SCc1ccccc1C(C)(C)O)c1cccc(CCc2ccc3ccc(Cl)cc3n2)c1)CC(=O)O` was 1.9 nM.
The value for `CC(C)(CC[C@H](SCc1ccccc1C(C)(C)O)c1cccc(CCc2ccc3ccc(Cl)cc3n2)c1)CC(=O)O` was 0.6 nM.
On to `CC(C)(CC[C@@H](SCc1ccccc1C(C)(C)O)c1cccc(/C=C/c2ccc3ccc(Cl)cc3n2)c1)CC(=O)O`, for which the IC50 came to 1 nM.
`CC(C)(CC[C@H](SCc1ccccc1C(C)(C)O)c1cccc(/C=C/c2ccc3ccc(Cl)cc3n2)c1)CC(=O)O` gave an IC50 of 0.6 nM.
Turning to `CC(C)(CC[C@H](SCc1ccccn1)c1cccc(CCc2ccc3ccc(Cl)cc3n2)c1)CC(=O)O`, the IC50 was 1.6 nM.
Next, `C[C@H](CCC[C@@H](SCCC(C)(C)O)c1cccc(/C=C/c2ccc3ccc(Cl)cc3n2)c1)C(=O)O`: 0.8 nM.
The value for `CC(C)(CC[C@H](SCCc1ccccn1)c1cccc(CCc2ccc3ccc(Cl)cc3n2)c1)CC(=O)O` was 2.2 nM; that for `C[C@H](CCC[C@H](SCCC(=O)N(C)C)c1cccc(/C=C/c2ccc3ccc(Cl)cc3n2)c1)C(=O)O` was 2.3 nM.
`C[C@H](CCC[C@@H](SCCC(=O)N(C)C)c1cccc(/C=C/c2ccc3ccc(Cl)cc3n2)c1)C(=O)O` returned a half-maximal inhibitory concentration (IC50) of 0.9 nM.
Next, `C[C@H](CCC[C@H](SCCC(C)(C)O)c1cccc(/C=C/c2ccc3ccc(Cl)cc3n2)c1)C(=O)O`: 2 nM.
